The record followed here is patent publication US20240226343A1, “NEUROPEPTIDE Y1 RECEPTOR (NPY1R) TARGETED THERAPEUTICS AND USES THEREOF” (RADIONETICS ONCOLOGY, INC., priority 2022, published 2024).

Molecules are shown by their SMILES. Like-named read-outs stand apart in the source and are kept apart here.

For the assay, the target named is T1, hNPY1R (Homo sapiens, UniProt P25929).
T1 construct: SK-N-MC cells endogenously expressing the NPY1R receptor; endogenous in cells; host or cells: SK-N-MC cells (crude membrane fractions)
T1 sequence (P25929 1-384): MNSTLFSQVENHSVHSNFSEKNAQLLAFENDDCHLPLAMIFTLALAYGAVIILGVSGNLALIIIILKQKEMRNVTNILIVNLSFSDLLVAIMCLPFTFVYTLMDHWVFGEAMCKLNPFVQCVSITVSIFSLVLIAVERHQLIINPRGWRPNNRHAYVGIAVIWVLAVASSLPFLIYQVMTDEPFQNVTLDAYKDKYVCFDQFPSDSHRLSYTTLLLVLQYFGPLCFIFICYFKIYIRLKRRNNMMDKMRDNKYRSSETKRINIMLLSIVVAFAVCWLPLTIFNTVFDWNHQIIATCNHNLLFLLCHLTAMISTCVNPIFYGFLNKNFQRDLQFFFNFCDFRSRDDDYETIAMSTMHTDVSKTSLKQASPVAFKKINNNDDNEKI
As to the kind of experiment: NPY1R binding assay: SK-N-MC membranes, [125I]-Peptide YY (human) competition. Here is the method:
Crude membrane fractions are prepared from SK-N-MC cells endogenously expressing the NPY1R receptor. The cells are grown to 85-100% confluence on standard tissue culture dishes in Eagle's Minimum Essential Medium supplemented with 10% dialyzed FBS. To prepare membranes, cells are scraped and collected in 1× Dulbecco's phosphate buffered saline and then pelleted at 1000 RPM's. The cell pellet is reconstituted in membrane preparation buffer (20 mM HEPES, 6 mM MgCl2 and 1 mM EGTA, protease inhibitor tablets, pH 7.4) and placed in a cell disruption vessel at 1000 PSI for 30 minutes on ice. The pressurized contents are then released and spun down at 1000 RPMs and the supernatant is collected and further centrifuged at 15,000 RPMs to pellet the membranes. The membrane pellet is resuspended in membrane preparation buffer, snap frozen and stored at −80° C. for later use.
[…] Assay contents are then filtered through unifilter GF/C microplates and washed with 9×400 μl of cold wash buffer (25 mM HEPES, 5 mM MgCl2, 1 mM CaCl2), 500 mM NaCl, 0.1% Tween-20, pH 7.4). Assay plates are read using a Top Count NXT and Ki values for compounds are determined using a GraphPad Prism 6 non-linear regression analysis.

The mark [1] stands for this setting: data obtained after 60 minutes at 37° C., SK-N-MC membranes, [125I]-Peptide YY 0.05 nM, read-out: hNPY1R binding Ki* †.
The mark [2] stands for this setting: data obtained after 120 minutes at rt, SK-N-MC membranes, [125I]-Peptide YY, read-out: hNPY.R binding Ki* ††.

Regarding `CCC(=O)NCCNC(=O)/N=C(/N)NCCC[C@@H](NC(=O)C(c1ccccc1)c1cccc(OCCCCNC(=O)[C@H](CS(=O)(=O)O)NC(=O)CN2CCN(CC(=O)O)CCN(CC(=O)O)CCN(CC(=O)O)CC2)c1)C(=O)NCc1ccc(O)cc1` (single isomer, unassigned) [Compound 107B], under setting [1], the Ki was 10 to 100 nM.
`CCC(=O)NCCNC(=O)/N=C(/N)NCCC[C@@H](NC(=O)C(c1ccccc1)c1ccc(NCC(=O)N(C)CCCN(C)CCCN(C)C(=O)CN2CCN(CC(=O)O)CCN(CC(=O)O)CCN(CC(=O)O)CC2)cc1)C(=O)NCc1ccc(O)cc1` (single isomer, unassigned) [Compound 139A]: under setting [2], the Ki is less than 10 nM.
For the compound `CCC(=O)NCCNC(=O)/N=C(/N)NCCC[C@@H](NC(=O)C(c1ccccc1)c1cccc(OCCCCNC(=O)[C@@H](CCCNC(=N)N)NC(=O)CCNC(=O)CN2CCN(CC(=O)O)CCN(CC(=O)O)CCN(CC(=O)O)CC2)c1)C(=O)NCc1ccc(O)cc1` (single isomer, unassigned) [Compound 141B], under setting [2], the Ki is less than 10 nM.
The same measure, in the same setting: to `CCC(=O)NCCNC(=O)/N=C(/N)NCCC[C@@H](NC(=O)C(c1ccccc1)c1cccc(OCCCCNC(=O)CCOCCOCCOCCOCCOCCOCCOCCOCCOCCOCCOCCOCCOCCOCCOCCOCCOCCOCCOCCOCCOCCOCCOCCOCCOCCOCCOCCOCCOCCOCCOCCOCCOCCOCCOCCOCCNC(=O)CN2CCN(CC(=O)O)CCN(CC(=O)O)CCN(CC(=O)O)CC2)c1)C(=O)NCc1ccc(O)cc1` (stereo partly shown) [Compound 126] belongs 10 to 100 nM.
Regarding `CCC(=O)NCCNC(=O)/N=C(/N)NCCC[C@@H](NC(=O)C(c1ccccc1)c1cccc(OCCOCCOCCNC(=O)CN2CCN(CC(=O)O)CCN(CC(=O)O)CCN(CC(=O)O)CC2)c1)C(=O)NCc1ccc(O)cc1` (stereo partly drawn) [Compound 105, 2,2′,2″-(10-(2-((2-(2-(2-(3-((4R,Z)-9-amino-4-((4-hydroxybenzyl)carbamoyl)-2,11,16-trioxo-1-phenyl-3,8,10,12,15-pentaazaoctadec-9-en-1-yl)phenoxy)ethoxy)ethoxy)ethyl)amino)-2-oxoethyl)-1,4,7,10-tetraazacyclododecane-1,4,7-triyl)triacetic acid], the Ki under setting [1] is less than 10 nM.
Same read-out and setting: the value for `CCC(=O)NCCNC(=O)/N=C(/N)NCCC[C@@H](NC(=O)C(c1ccccc1)c1cccc(OCCCCNC(=O)[C@H](N)CCCCNC(=O)CN2CCN(CC(=O)O)CCN(CC(=O)O)CCN(CC(=O)O)CC2)c1)C(=O)NCc1ccc(O)cc1` (single isomer, unassigned) [Compound 109A] was less than 10 nM.
As for `CCC(=O)NCCNC(=O)/N=C(/N)NCCC[C@@H](NC(=O)C(c1ccccc1)c1cccc(OCCCCNC(=O)CCNC(=O)CN2CCN(CC(=O)O)CCN(CC(=O)O)CCN(CC(=O)O)CC2)c1)C(=O)NCc1c(F)cc(O)cc1F` (single isomer, unassigned) [Compound 162B], the Ki under setting [2] was less than 10 nM.
Same read-out and setting: the value for `CCC(=O)NCCNC(=O)/N=C(/N)NCCC[C@@H](NC(=O)C(c1ccccc1)c1cccc(OCCCCNC(=O)CONC(=O)CCNC(=O)CN2CCN(CC(=O)O)CCN(CC(=O)O)CCN(CC(=O)O)CC2)c1)C(=O)NCc1c(F)cc(O)cc1F` (single isomer, unassigned) [Compound 167] was less than 10 nM.
Regarding `CCC(=O)NCCNC(=O)/N=C(/N)NCCC[C@@H](NC(=O)C(c1ccccc1)c1cccc(OCCCCNC(=O)[C@H](N)CCCCNC(=O)CN2CCN(CC(=O)O)CCN(CC(=O)O)CCN(CC(=O)O)CC2)c1)C(=O)NCc1ccc(O)cc1` (single isomer, unassigned) [Compound 109B], the Ki under setting [1] is less than 10 nM.
As to `CCC(=O)NCCNC(=O)/N=C(/N)NCCC[C@@H](NC(=O)C(c1ccccc1)c1cccc(NCCCNc2c(NCCNC(=O)CN3CCN(CC(=O)O)CCN(CC(=O)O)CCN(CC(=O)O)CC3)c(=O)c2=O)c1)C(=O)NCc1ccc(O)cc1` (single isomer, unassigned) [Compound 120B], the Ki under setting [2] was less than 10 nM.
Consider `CCC(=O)NCCNC(=O)/N=C(/N)NCCC[C@@H](NC(=O)C(c1ccccc1)c1cccc(OCCCCNc2c(NCCNC(=O)[C@@H](CN)NC(=O)CN3CCN(CC(=O)O)CCN(CC(=O)O)CCN(CC(=O)O)CC3)c(=O)c2=O)c1)C(=O)NCc1ccc(O)cc1` (stereo in doubt) [Compound 115B-In, Indium (III) 2,2′,2″-(10-(2-(((R)-3-amino-1-((2-((2-((4-(3-((R,Z)-9-amino-4-((4-hydroxybenzyl)carbamoyl)-2,11,16-trioxo-1-phenyl-3,8,10,12,15-pentaazaoctadec-9-en-1-yl)phenoxy)butyl)amino)-3,4-dioxocyclobut-1-en-1-yl)amino)ethyl)amino)-1-oxopropan-2-yl)amino)-2-oxoethyl)-1,4,7,10-tetraaza-cyclododecane-1,4,7-triyl)triacetate], for which the Ki under setting [2] is less than 10 nM.
For the compound `CCC(=O)NCCNC(=O)/N=C(/N)NCCC[C@@H](NC(=O)C(c1ccccc1)c1cccc(OCCCCNc2c(NCCNC(=O)CN3CCN(CC(=O)O)CCN(CC(=O)O)CCN(CC(=O)O)CC3)c(=O)c2=O)c1)C(=O)NCc1ccc(O)cc1` (single isomer, unassigned) [Compound 111A], the Ki under setting [1] is less than 10 nM.
For the compound `CCC(=O)NCCNC(=O)/N=C(/N)NCCC[C@@H](NC(=O)C(c1ccccc1)c1cccc(OCCCCNC(=O)NOCCNC(=O)CN2CCN(CC(=O)O)CCN(CC(=O)O)CCN(CC(=O)O)CC2)c1)C(=O)NCc1c(F)cc(O)cc1F` (single isomer, unassigned) [Compound 163B], under setting [2], the Ki is less than 10 nM.
Turning to `CCC(=O)NCCNC(=O)/N=C(/N)NCCC[C@@H](NC(=O)C(c1ccccc1)c1cccc(OCCCCNc2c(NCCONC(=O)CN3CCN(CC(=O)O)CCN(CC(=O)O)CCN(CC(=O)O)CC3)c(=O)c2=O)c1)C(=O)NCc1c(F)cc(O)cc1F` (single isomer, unassigned) [Compound 169], the Ki under setting [2] is less than 10 nM.
Same read-out and setting: the value for `CCC(=O)NCCNC(=O)/N=C(/N)NCCC[C@@H](NC(=O)C(c1ccccc1)c1cccc(OCCCCNc2c(NCCNC(=O)[C@@H](CN)NC(=O)CN3CCN(CC(=O)O)CCN(CC(=O)O)CCN(CC(=O)O)CC3)c(=O)c2=O)c1)C(=O)NCc1ccc(O)cc1` (single isomer, unassigned) [Compound 115A] was less than 10 nM.
Consider `CCC(=O)NCCNC(=O)/N=C(/N)NCCC[C@@H](NC(=O)C(c1ccccc1)c1cccc(OCCOCCOCCOCCOCCNC(=O)CN2CCN(CC(=O)O)CCN(CC(=O)O)CCN(CC(=O)O)CC2)c1)C(=O)NCc1ccc(CNC(N)=O)cc1` (single isomer, unassigned) [Compound 114A], for which, under setting [1], the Ki was in the range of 10 to 100 nM.
Take `CCNC(=O)/N=C(/N)NCCC[C@@H](NC(=O)C(c1ccccc1)c1cccc(OCCCCNC(=O)[C@@H](Cc2ccc(-c3ccccc3)cc2)NC(=O)[C@@H](CN)NC(=O)CN2CCN(CC(=O)O)CCN(CC(=O)O)CCN(CC(=O)O)CC2)c1)C(=O)NCc1ccc(O)cc1` (single isomer, unassigned) [Compound 148B]: the Ki under setting [2] was less than 10 nM.
As for `CCC(=O)NCCNC(=O)/N=C(/N)NCCC[C@@H](NC(=O)C(c1ccccc1)c1ccc(NCCCNC(=O)CCOCCOCCNC(=O)CN2CCN(CC(=O)O)CCN(CC(=O)O)CCN(CC(=O)O)CC2)cc1)C(=O)NCc1ccc(O)cc1` (single isomer, unassigned) [Compound 103B], under setting [1], the Ki was less than 10 nM.
Regarding `CCC(=O)NCCNC(=O)/N=C(/N)NCCC[C@@H](NC(=O)C(c1ccccc1)c1cccc(OCCCCNC(=O)NOCCNC(=O)CN2CCN(CC(=O)O)CCN(CC(=O)O)CCN(CC(=O)O)CC2)c1)C(=O)NCc1c(F)cc(O)cc1F` (single isomer, unassigned) [Compound 163A], under setting [2], the Ki was less than 10 nM.
Regarding `CCC(=O)NCCNC(=O)/N=C(/N)NCCC[C@@H](NC(=O)C(c1ccccc1)c1ccc(NCCCNC(=O)CN2CCC(NC(=O)CN3CCN(CC(=O)O)CCN(CC(=O)O)CCN(CC(=O)O)CC3)CC2)cc1)C(=O)NCc1ccc(O)cc1` (single isomer, unassigned) [Compound 133A], the Ki under setting [2] is less than 10 nM.
As to `CCC(=O)NCCNC(=O)/N=C(/N)NCCC[C@@H](NC(=O)C(c1ccccc1)c1ccc(OCCCNc2c(NCCNC(=O)CN3CCN(CC(=O)O)CCN(CC(=O)O)CCN(CC(=O)O)CC3)c(=O)c2=O)cc1)C(=O)NCc1ccc(O)cc1` (single isomer, unassigned) [Compound 136A], the Ki (read-out: hNPY.R binding Ki* ††) was less than 10 nM.
On to `CCC(=O)NCCNC(=O)/N=C(/N)NCCC[C@@H](NC(=O)C(c1ccccc1)c1ccc(NCCCNC(=O)[C@H](N)CCCCNC(=O)CN2CCN(CC(=O)O)CCN(CC(=O)O)CCN(CC(=O)O)CC2)cc1)C(=O)NCc1ccc(O)cc1` (single isomer, unassigned) [Compound 132A], for which the Ki under setting [2] was less than 10 nM.
